Tested on: Male C57BL/6 mice
Experiment: In vivo protection against doxorubicin-induced cardiotoxicity (ECG, echocardiography)
Settings: 1 mg/kg i.p. twice a day for 2 days, doxorubicin 25 mg/kg i.p., ECG day 4, heart echo day 5
Protocol: Compound 28 was evaluated for protecting against doxorubicin-induced cardiotoxicity in mice.
Male C57BL/6 mice between 7 and 8 months old were treated with Compound 28 (at a dosage of 1 mg/kg) or a vehicle (1.5 wt % of DMF and 3 wt % of Cremophor® EL in PBS) via intraperitoneal injection (i.p.) twice a day for 2 days. At day 0, 1 hour after the treatment with Compound 28, doxorubicin (25 mg/kg, i.p.) or another vehicle (10% DMSO in normal saline) was injected into mice.
Electrocardiogram (ECG) and heart echo on day 4 and day 5 respectively were used as indications of cardiac function. […]
Functional test of heart using ECG was performed as described in Yeh et al., PLoS Biol. 2019, 17, e3000508. […] Continuous 5-minute ECGs were obtained using subcutaneous electrodes attached at the four limbs and recorded with PowerLab® data acquisition system (model ML866, ADInstruments, Colorado Springs, CO) and Animal Bio Amp® (model ML136, ADInstruments). ECG analysis was performed in an unbiased fashion where 1500 beats were analyzed using LabChart® 7 Pro version 7.3.1 (ADInstruments, Inc). […]
Transthoracic mouse echocardiography was used to provide noninvasive imaging of the heart on a VisualSonics® VeVo® 2100 imaging system (VisualSonics, Toronto, Ontario, Canada). […] Body temperature was maintained and monitored at 36° C. to 37° C. on a heated pad (TC-1000, CWE Inc. USA). ECGs were continuously monitored. […]

O=C(CS(=O)(=O)c1nccs1)N1Cc2ccccc2C1 [Compound 28, 1-(1,3-dihydro-2H-isoindol-2-yl)-2-(1,3-thiazol-2-ylsulfonyl)ethanone]
protection against doxorubicin-induced cardiotoxicity: protected against doxorubicin-induced cardiotoxicity
